In patent publication EP4603105A1, “PHARMACEUTICAL COMPOSITION CONTAINING CYCLIC COMPOUND HAVING SELECTIVE KRAS INHIBITORY EFFECT AGAINST HRAS AND NRAS” (CHUGAI SEIYAKU KABUSHIKI KAISHA, priority 2022, dated 2024):
pIC50: −log10 of the molar value. *1 amine or outer side, *2 acyl side, *3 side chain or, on linkers, in order; H or OH if unused. Where a SMILES comes first, the peptide text is derived from it. Bridges are numbered along the chain shown (N, C = ends). [ ]: non-standard residue; d: D form. The star is where a group is joined. hPhe(3-Cl-4-CF3) = N[C@@H](CCc1ccc(C(F)(F)F)c(Cl)c1)C(=O)O; NPrPhe(4-CF3) = CCCN[C@@H](Cc1ccc(C(F)(F)F)cc1)C(=O)O; X27 = COCCCN([C@@H](Cc1ccc(C)cc1)C(=O)[*:2])[*:1]; Abu(4,4,4-F3) = N[C@@H](CC(F)(F)F)C(=O)O; NMeGly(cPent) = CN[C@H](C(=O)O)C1CCCC1; NMeD = CN[C@@H](CC(=O)O)C(=O)O; NMeL = CN[C@@H](CC(C)C)C(=O)O; Morpholide = C1CN(*)CCO1; NMeA = CN[C@@H](C)C(=O)O; Ac5c = NC1(C(=O)O)CCCC1; Aze = O=C(O)[C@@H]1CCN1; Sar = CNCC(=O)O

How the values were obtained:
[1] = molecular target: HRAS wild-type protein (Homo sapiens, UniProt P01112); experiment: Binding to HRAS by surface plasmon resonance (SPR), KD and KD ratio to KRAS
Summary of the method: (§1)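 Single-cycle kinetics on GDP-loaded biotin-Avi RAS captured to ~100–300 RU; 75 s ascending injections, 100 µL/min, 30°C. HBS pH 7.4 + 10 mM MgCl2/10 µM GDP/4% DMSO. 1:1 fit, KD.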

[2] = molecular target: GDP-bound NRAS wild-type protein (Homo sapiens, UniProt P01111); experiment: Binding to NRAS by surface plasmon resonance (SPR), KD and KD ratio to KRAS
Summary of the method: as §1

[3] = test system: human lung cancer strain NCI-H441; format: cell-based
Summary of the method: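 Proliferation was scored by […] measured after the reagent was added to cultures kept at 37°C in 5% carbon dioxide.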

[4] = ratio of KD for HRAS wild-type protein to KD for KRAS
[5] = ratio of KD for GDP-bound NRAS wild-type protein to KD for KRAS
[6] = ratio of the KD value with respect to HRAS wild-type protein to the KD value with respect to KRAS
[7] = ratio of the KD value with respect to GDP-bound NRAS wild-type protein to the KD value with respect to KRAS
[8] = ratio of KD value for HRAS wild-type protein to KD value for KRAS (SPR)
[9] = ratio of KD value for GDP-bound NRAS wild-type protein to KD value for KRAS (SPR)

Sequence of HRAS wild-type protein (P01112 whole entry): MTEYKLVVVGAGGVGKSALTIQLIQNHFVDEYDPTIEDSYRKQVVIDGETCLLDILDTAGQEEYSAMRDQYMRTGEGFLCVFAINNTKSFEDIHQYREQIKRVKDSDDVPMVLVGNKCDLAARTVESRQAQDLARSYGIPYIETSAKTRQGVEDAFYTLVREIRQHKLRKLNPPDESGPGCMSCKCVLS
Sequence of GDP-bound NRAS wild-type protein (P01111 whole entry): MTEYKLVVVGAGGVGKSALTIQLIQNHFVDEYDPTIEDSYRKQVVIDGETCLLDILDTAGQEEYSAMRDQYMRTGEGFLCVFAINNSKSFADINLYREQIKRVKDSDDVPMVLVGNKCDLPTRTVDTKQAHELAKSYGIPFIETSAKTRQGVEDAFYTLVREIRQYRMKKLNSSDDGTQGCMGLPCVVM

Row | Compound | pIC50 [3] | HRAS /KRAS [1, 4] | NRAS /KRAS [2, 5] | HRAS /KRAS [1, 6] | NRAS /KRAS [2, 7] | HRAS /KRAS [1, 8] | NRAS /KRAS [2, 9]
1 | CCCN1C(=O)CN(C)C(=O)CN(C)C(=O)[C@H](CC(F)(F)F)NC(=O)[C@H](CC(C)C)N(C)C(=O)C[C@@H](C(=O)N2CCOCC2)N(C)C(=O)[C@H](C2CCCC2)N(C)C(=O)C2(CCCC2)NC(=O)[C@@H]2CCCN2C(=O)[C@H](CCc2ccc(C(F)(F)F)c(Cl)c2)NC(=O)CN(C)C(=O)[C@@H]1Cc1ccc(C(F)(F)F)cc1 [PP0249] ([NMeL][Abu(4,4,4-F3)][Sar][Sar][NPrPhe(4-CF3)][Sar][hPhe(3-Cl-4-CF3)]P[Ac5c][NMeGly(cPent)][NMeD]-Morpholide; lactam N-11) | 7.59 | C (A compound having a KD ratio of 0.1 or more and less than 3 is denoted as C) | B (a compound having 3 or more and less than 10 is denoted as B) | – | – | – | –
2 | CC[C@H](C)[C@@H]1NC(=O)[C@H](CC(C)C)N(C)C(=O)C[C@@H](C(=O)N2CCOCC2)N(C)C(=O)[C@H](C2CCCC2)N(C)C(=O)C2(CCC2)NC(=O)[C@@H]2C[C@@H](OCCC(F)(F)F)CN2C(=O)[C@H](CCc2cc(F)c(C(F)(F)F)c(F)c2)NC(=O)CN(C)C(=O)[C@H](Cc2ccc(C(F)(F)F)cc2)N2CCCC[C@@H](C2=O)N(C)C(=O)CN(C)C1=O [PP0998] | 7.71 | B (a compound having 3 or more and less than 10 is denoted as B) | B (a compound having 3 or more and less than 10 is denoted as B) | – | – | – | –
3 | CC[C@H](C)[C@@H]1NC(=O)[C@H](CC(C)C)N(C)C(=O)C[C@@H](C(=O)N(C)C)N(C)C(=O)[C@H](C2CCCC2)N(C)C(=O)C2(CCCC2)NC(=O)[C@@H]2CCCN2C(=O)[C@H](CCc2ccc(C(F)(F)F)c(Cl)c2)NC(=O)CN(C)C(=O)[C@H](Cc2ccc(C(F)(F)F)cc2)N2CC/C=C\COC[C@@H](C2=O)N(C)C(=O)CN(C)C1=O [PP0622] | 6.48 | – | – | B (a compound having 3 or more and less than 10 is denoted as B) | B (a compound having 3 or more and less than 10 is denoted as B) | – | –

These reach a higher pIC50 [3]. Values come first.

Row | pIC50 [3] | Compound | HRAS /KRAS [1, 4] | NRAS /KRAS [2, 5] | HRAS /KRAS [1, 6] | NRAS /KRAS [2, 7] | HRAS /KRAS [1, 8] | NRAS /KRAS [2, 9]
4 | 8.05 | CCO[C@@H]1C[C@H]2C(=O)NC3(CC(C)(C)C3)C(=O)N(C)[C@@H](C(CC)CC)C(=O)N(C)[C@H](C(=O)N(C)C)CC(=O)N(C)[C@@H](CC3CC3)C(=O)N[C@@H]([C@@H](C)CC)C(=O)N(C)CC(=O)N(C)[C@H]3C/C=C\CCN(C3=O)[C@@H](Cc3ccc(C(F)(F)F)cc3)C(=O)N(C)CC(=O)N[C@@H](CCc3cc(F)c(C(F)(F)F)c(F)c3)C(=O)N2C1 [PP2119] | – | – | B (a compound having 3 or more and less than 10 is denoted as B) | A (a compound having 10 or more and less than 20 is denoted as A) | – | –
5 | 8.66 | CC[C@H](C)[C@@H]1NC(=O)[C@H](CC(C)C)N(C)C(=O)C[C@@H](C(=O)N2CCOCC2)N(C)C(=O)[C@H](C2CCCC2)N(C)C(=O)C2(CCCC2)NC(=O)[C@@H]2CCCN2C(=O)[C@H](CCc2ccc(C(F)(F)F)c(Cl)c2)NC(=O)CN(C)C(=O)[C@H](Cc2ccc(C)cc2)N(CCCOC)C(=O)[C@@H]2CCN2C(=O)[C@H](C)N(C)C1=O [PP0093] ([NMeL]I[NMeA][Aze][X27][Sar][hPhe(3-Cl-4-CF3)]P[Ac5c][NMeGly(cPent)][NMeD]-Morpholide; lactam N-11) | B (a compound having 3 or more and less than 10 is denoted as B) | C (A compound having a KD ratio of 0.1 or more and less than 3 is denoted as C) | – | – | – | –
6 | 8.19 | CCO[C@@H]1C[C@H]2C(=O)NC3(CCCC3)C(=O)N(C)[C@@H](C3CCCC3)C(=O)N(C)[C@H](C(=O)N(C)CC)CC(=O)N(C)[C@@H](CC(C)C)C(=O)N[C@@H]([C@@H](C)CC)C(=O)N(C)CC(=O)N(C)[C@H]3C/C=C\CCN(C3=O)[C@@H](Cc3ccc(C(F)(F)F)cc3)C(=O)N(C)CC(=O)N[C@@H](CCc3cc(F)c(C(F)(F)F)c(F)c3)C(=O)N2C1 [PP1574] | – | – | – | – | A (a compound having 10 or more and less than 20 is denoted as A) | A (a compound having 10 or more and less than 20 is denoted as A)
7 | 8.40 | CCO[C@@H]1C[C@H]2C(=O)N(C)C3(CCCC3)C(=O)N(C)[C@@H](C3CCCC3)C(=O)N(C)[C@H](C(=O)N(C)C)CC(=O)N(C)[C@@H](CC)C(=O)N[C@@H]([C@@H](C)CC)C(=O)N(C)CC(=O)N(C)[C@H]3C/C=C\CCN(C3=O)[C@@H](Cc3ccc(C)cc3)C(=O)N(C)CC(=O)N[C@@H](CCc3cc(F)c(C(F)(F)F)c(F)c3)C(=O)N2C1 [PP1806] | – | – | – | – | B (a compound having 3 or more and less than 10 is denoted as B) | A (a compound having 10 or more and less than 20 is denoted as A)
